Data: patent EP0277611A2, “Alkyl-substituted N-benzopyranyl lactames, process for their preparation, their use and pharmaceutical preparations on the basis of these compounds” (HOECHST AKTIENGESELLSCHAFT, priority 1987, dated 1988)
Read-outs that look alike come from different tables or passages of the source.

Key:
arteriellen Blutdruck = test: Effect on arterial blood pressure in anaesthetised normotensive rats (ED25 from minima of blood pressure curves); assay type: in vivo, männlichen Sprague-Dawley Ratten; settings: Rattus norvegicus, anaesthetised (Nembutal 70 mg/kg i.p.) normotensive rats, from minimum of blood pressure curve, read-out: ED₂₅
Protocol: Der Einfluß der Verbindungen auf den arteriellen Blutdruck wurde an narkotisierten normotensiven männlichen Sprague-Dawley Ratten untersucht. Als Betäubungsmittel wurde Nembutal® in einer Dosis von 70 mg/kg i.p. verwendet. Die Blutdruckmessung erfolgte mittels Katheter in der Arteria carotis mit einem Druckwandler (Statham P 23 Db). Für die i.v. Applikation wurden die Substanzen in Dimethylsulfoxid gelöst und mit Wasser verdünnt. Die Konzentration der Stammlösung war 1mg/ml, wobei die Lösung 15 % Dimethylsulfoxid enthielt. Anteile dieser Stammlösung wurden für die Injektion jeweils frisch mit Wasser verdünnt.
Es kamen Konzentrationen von 50 (100), 30 (30) und 10 (10) µg/ml für die i.v. Applikation, 100 (100), 50 (60) und 30 (30) µg/ml für die i.d. Applikation zur Anwendung. Die angegebenen Zahlen beziehen sich dabei auf das Experiment a), die in Klammern angegebenen Zahlen auf Experiment b).
Die Blutdruckmessung wurde nach 0; 0,2; 0,4; 1; 2; 3; 10; 15 und 30 min. nach der i.v. Applikation sowie nach 0; 1; 3; 5; 10; 15; 20; 30; 40; 50 und 60 min. nach der i.d. Applikation vorgenommen. Die ED₂₅ Werte wurden aus dem Minima der jeweiligen Blutdruckkurven bestimmt. • a) (±)-(3R*, 4S*, 5ʹS*)-6-Cyano-3,4-dihydro-2,2-dimethyl-4-(2ʹ-oxo-5ʹ-methyl-1ʹ-pyrrolidinyl)-2H-benzo[b]pyran-3-ol (Verbindung aus Beispiel 1): ED₂₅= 19 µg/kg (i.v.) ED₂₅=42 µg/kg (i.d.) • b) (±)-6-Cyano-3,4-dihydro-2,2-dimethyl-trans-4-(2-oxo-1-pyrrolidinyl-2H-benzo[b]pyran-3-ol (Beispiel aus J. Med. Chem. 1986, 29, 2194-2201) ED₂₅= 42 µg/kg (i.v.) ED₂₅= 82 µg/kg (i.d.)

Meerschweinchen-Ureteren = test: Influence on KCl-induced rhythmic contractions of isolated guinea pig ureters in vitro; assay type: cell-based; settings: 10⁻⁷ mol/l test substance, KCl 4 x 10⁻² mol/l, mean ± SEM; for inhibition at 0.1 µM: Cavia porcellus
Excerpt: Beeinflussung der KCl-induzierten rhythmischen Kontraktionen an Meerschweinchen-Ureteren in vitro
Männliche Meerschweinchen wurden durch Nackenschlag und Entbluten aus den Carotiden getötet. Die beiden Ureteren wurden sofort entnommen, wobei der Bereich nahe dem Nierenkelch wegen der dort vorhandenen Schrittmacher-Aktivität gemieden wurde. 2 cm lange Stücke wurden zunächst in einer Petrischale, die Tyrode-Lösung enthielt, von Bindegewebe befreit und dann jeweils mit einer Vorspannung von 4,9 mN (=0,5 p) in ein 25 ml-Organbad (Fa. Rhema Labortechnik, Hofheim) gehängt. Das Organbad enthielt eine auf 37° gehaltene und mit Carbogen (95 % O₂, 5 % CO₂) durchperlte Tyrodelösung mit folgender Zusammensetzung (mmol/l): NaCl 137, KCl 2,68, MgSO₄ 1,05, CaCl₂ 1,8, NaH₂PO₄ 0,41, NaHCO₃ 11,9, Glucose 5,55. Die Kontraktionen wurden isometrisch gemessen unter Verwendung von Gould/Statham UC2 Gebern. Nach einer Äquiilibrierungszeit von mindestens 15 Minuten wurde KCl in das Organbad zugegeben, wobei eine Konzentration von 4 x 10⁻² mol/l erreicht wurde. Der Agonist wurde 2 Minuten im Bad belassen, wobei phasische Kontraktionen auftraten, ohne einen nennenswerten Anstieg der Grundspannung zu bewirken.
Danach wurde 1 Minute ausgespült, woraufhin die rhythmischen Kontraktionen sofort aufhörten. Nach einem zweiten Durchgang von Agonistgabe und Spülvorgang wurde die Prüfsubstanz (Benzopyran-Derivat) in das Organbad zugegeben (in Form einer Lösung in 0,1 ml Ethanol, die Endkonzentrationen betrugen in allen Fällen 10⁻⁷ mol/l) und eine Einwirkungszeit von einer Minute abgewartet, bevor KCl zugesetzt wurde. An den folgenden Spülvorgang schlossen sich zwei abschließende Agonistgabe/Spülgänge an. Von den jeweils zweiminütigen Perioden unter KCl-Einwirkung wurden folgende Parameter bestimmt: 1. mittlere Kontraktionskraft, 2. Frequenz der Kontraktionen und 3. Produkt aus mittlerer Kontraktionskraft und Frequenz. Ausschlußkriterien waren mittlere Kontraktionskräfte unter 4 mN oder Frequenzen unter 2/min bei mehr als einer der vier Perioden, bei denen nur der Agonist KCl im Bad vorhanden war. Ausgewertet wurde die prozentuale Hemmung unter Prüfsubstanz im Vergleich zum gemittelten Wert aus den beiden Vorläufen.
Neben dem arithmetischen Mittelwert (x) wurde der Standardfehler des Mittelwerts (SEM) errechnet.

[1] = percent inhibition of product of mean contraction force and frequency, read-out: k·v [%]
[2] = percent inhibition vs mean of the two pre-runs, read-out: Frequenz v [%]
[3] = percent inhibition vs mean of the two pre-runs, read-out: mittlere Kontraktionskraft k [%]
[4] = percent inhibition vs mean of the two pre-runs, 0.1 µM

SMILES | ED25 (arteriellen Blutdruck; iv) [mg/kg] | ED25 (arteriellen Blutdruck; i.d.) [mg/kg] | inhibition at 0.1 µM (Meerschweinchen-Ureteren; [1]) [%] | inhibition at 0.1 µM (Meerschweinchen-Ureteren; [2]) [%] | inhibition at 0.1 µM (Meerschweinchen-Ureteren; [3]) [%] | k·v [%] (Meerschweinchen-Ureteren; percent inhibition of product of mean contraction force and frequency, 0.1 µM) | Frequenz v [%] (Meerschweinchen-Ureteren; [4]) | mittlere Kontraktionskraft k [%] (Meerschweinchen-Ureteren; [4])
C[C@H]1CCC(=O)N1[C@H]1c2cc(C#N)ccc2OC(C)(C)[C@@H]1O (racemic) [(3R*, 4S*, 5ʹS*)-6-Cyano-3,4-dihydro-2,2-dimethyl-4-[2ʹ-oxo-5ʹ-methyl-1ʹ-pyrrolidinyl]-2H-benzo[b]pyran-3-ol] | 0.019 | 0.042 | – | – | – | – | – | –
CC1(C)Oc2ccc(C#N)cc2C(N2CCCC2=O)C1O (racemic) [(±)-6-Cyano-3,4-dihydro-2,2-dimethyl-trans-4-(2-oxo-1-pyrrolidinyl-2H-benzo[b]pyran-3-ol, reference compound] | 0.042 | 0.082 | 61 ± 7 | 58 ± 5 | 8 ± 8 | – | – | –
C[C@@H]1CCC(=O)N1[C@H]1c2cc(C#N)ccc2OC(C)(C)[C@@H]1O (racemic) [±)-(3R^*,4S^*,5'R^*)-6-Cyano-3,4-dihydro-2,2-dimethyl-4-(2'-] [(3R*, 4S*, 5ʹR*)-6-Cyano-3,4-dihydro-2,2-dimethyl-4-[2ʹ-oxo-5ʹ-methyl-1ʹ-pyrrolidinyl)-2H-benzo[b]pyran-3-ol] | – | – | – | – | – | 96 ± 1 | 86 ± 4 | 69 ± 11
C[C@@H]1CCC(=O)N1[C@H]1c2cc(C#N)ccc2OC(C)(C)[C@@H]1O [(-)-(3R, 4S, 5ʹR)-6-Cyano-3,4-dihydro-2,2-dimethyl-4-(2ʹ-oxo-5ʹ-methyl-1ʹ-pyrrolidinyl)-2H-benzo[b]pyran-3-ol] | – | – | 96 ± 2 | 89 ± 4 | 75 ± 8 | – | – | –
